From the supplement of paper PMC11208160

Experiment: recombinant UMI read abundance after kanamycin selection (control-corrected) (log10(CPM+1)); higher = more efficient recombination; extreme values may be limits of the assay; sequences stand for … in AGTGCAGAGAAAATCGGCCAGTTTTCTCTGCCTGCAGTCCGCATGCCGTGGGACCCCTTGGGTTCTAACCTGTTGCCTAGATTTATGCAGCGGACTGCCTTTCTCCCAAAGTGATAAACCGG…AGGTTGGTTTCACT; site = the 11-nt donor
Method in brief: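 For the IS621 bridge recombinase, a pooled Escherichia coli screen tested donor and donor-binding-loop pairs. Cells received the pair library together with a target plasmid encoding a fixed target and T7-inducible recombinase, then went onto IPTG (0.07 mM) plus kanamycin or unselected plates in duplicate. After PCR across the donor–target junction and sequencing, recombinant UMI counts were normalized to CPM, averaged, and scaled by control-derived factors. Each value is given as log10(CPM+1).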

Row | Sequence | recombinant UMI read abundance (log10)
1 | TGCTGAGCATGGACCGGTTTTCCCGGTAATCCGTATTTGAT (site TGCTGAGCTAT) | 1.36
2 | TAGCTAGCATGGACCGGTTTTCCCGGTAATCCGTATTTGCA (site TAGCTAGCTTC) | 0.00756
3 | GAATGGACATGGACCGGTTTTCCCGGTAATCCGTATTTGAC (site GACTGGACTGT) | 0
4 | AGATCAGCATGGACCGGTTTTCCCGGTAATCCGTATTTGCT (site CGATCATCTAG) | 0
5 | CGATCGACATGGACCGGTTTTCCCGGTAATCCGTATTTGAT (site CGATCGACTAA) | 0.0179
6 | TTCCCTACATGGACCGGTTTTCCCGGTAATCCGTATTTGAG (site ATCCCTACTCT) | 0
7 | TAAAGAGCATGGACCGGTTTTCCCGGTAATCCGTATTTGGG (site TAACGAGCTCC) | 0.0368
8 | CTCTACACATGGACCGGTTTTCCCGGTAATCCGTATTTGCG (site CTCTACACTCG) | 1.73
9 | CTACTCTCATGGACCGGTTTTCCCGGTAATCCGTATTTGTA (site CTCCTCTCTTA) | 1.19
10 | TGTACACCATGGACCGGTTTTCCCGGTAATCCGTATTTGAC (site GGTACACCTGT) | 0
11 | GGGAAGGCATGGACCGGTTTTCCCGGTAATCCGTATTTGCA (site AGGAAGACTTG) | 0
12 | CGATCAGCATGGACCGGTTTTCCCGGTAATCCGTATTTGTT (site CGATCATCTAG) | 0
13 | ACAGTACCATGGACCGGTTTTCCCGGTAATCCGTATTTGCA (site ACAGTACCTTG) | 0.00459
14 | GGAGGTACATGGACCGGTTTTCCCGGTAATCCGTATTTGAC (site GAAGGTACTGT) | 0.759
15 | TCACGCACATGGACCGGTTTTCCCGGTAATCCGTATTTGAC (site TCACGCACTGT) | 0.943
16 | GGTGCTGCATGGACCGGTTTTCCCGGTAATCCGTATTTGCT (site GGTGCTGCTAG) | 1.53
17 | CCCTTATCATGGACCGGTTTTCCCGGTAATCCGTATTTGGG (site CCCTTTTCTCC) | 0
18 | ACACGATCATGGACCGGTTTTCCCGGTAATCCGTATTTGTC (site ACACGAACTGA) | 0.373
19 | GTGCTTGCATGGACCGGTTTTCCCGGTAATCCGTATTTGGT (site GTGCCTGCTAC) | 0.269
20 | GACAAATCATGGACCGGTTTTCCCGGTAATCCGTATTTGGT (site GACAAACCTAC) | 0
21 | GTGTCCGCATGGACCGGTTTTCCCGGTAATCCGTATTTGGC (site GTGTCCGCTGC) | 2.26
22 | ATGTACGCATGGACCGGTTTTCCCGGTAATCCGTATTTGGC (site ATGTAAGCTGC) | 1.81
23 | GGAGTAGCATGGACCGGTTTTCCCGGTAATCCGTATTTGGT (site GGAGTCGCTAC) | 0.0165
24 | CAATCATCATGGACCGGTTTTCCCGGTAATCCGTATTTGCT (site CAATCATCTAG) | 2.15
25 | GCTTCTGCATGGACCGGTTTTCCCGGTAATCCGTATTTGCC (site GCTTCTGCTGG) | 1.86

Row | Sequence | recombinant UMI read abundance (log10)
26 | ACCGGATCATGGACCGGTTTTCCCGGTAATCCGTATTTGAG (site ACCGGATCTCT) | 1.22
27 | TCCAATTCATGGACCGGTTTTCCCGGTAATCCGTATTTGTC (site TCCAATTCTGT) | 0
28 | ACCTGGGCATGGACCGGTTTTCCCGGTAATCCGTATTTGCA (site ACCTGGGCTTG) | 0.909
29 | AGGCCTGCATGGACCGGTTTTCCCGGTAATCCGTATTTGAA (site AGGCCTGCTTT) | 0.996
30 | ACTAGAACATGGACCGGTTTTCCCGGTAATCCGTATTTGAG (site ACTAGAACTCG) | 0
31 | CGTCTTACATGGACCGGTTTTCCCGGTAATCCGTATTTGTA (site CGTCTTACTTA) | 0.00853
32 | TCATACTCATGGACCGGTTTTCCCGGTAATCCGTATTTGCC (site TCATACTCTTG) | 0
33 | TAGTGGGCATGGACCGGTTTTCCCGGTAATCCGTATTTGTC (site TAGTGGGCTGA) | 2.31
34 | TCAGTCTCATGGACCGGTTTTCCCGGTAATCCGTATTTGAT (site TCAGTCTCTAT) | 2.42
35 | CAAGCAGCATGGACCGGTTTTCCCGGTAATCCGTATTTGCC (site CAAGCAGCTCG) | 1.16
36 | AATGTGTCATGGACCGGTTTTCCCGGTAATCCGTATTTGGC (site AATGTGTCTGC) | 2.67
37 | AAAGATTCATGGACCGGTTTTCCCGGTAATCCGTATTTGTT (site TAAGATTCTAA) | 2.48
38 | AGAATCACATGGACCGGTTTTCCCGGTAATCCGTATTTGAA (site AGAATCACTTT) | 2.16
39 | CTGGAAACATGGACCGGTTTTCCCGGTAATCCGTATTTGGA (site CTGGAAACTTT) | 2.09
40 | CGTTAGGCATGGACCGGTTTTCCCGGTAATCCGTATTTGCT (site CGTTAGGCTAG) | 0.924
41 | CGCTACACATGGACCGGTTTTCCCGGTAATCCGTATTTGCT (site CTCTACACTAG) | 0.92
42 | CGAGAAGCATGGACCGGTTTTCCCGGTAATCCGTATTTGCT (site CGAGAAGCTAG) | 2.17
43 | GCTACTGCATGGACCGGTTTTCCCGGTAATCCGTATTTGAC (site GCTACTGCTGG) | 0
44 | CCCTTGGCATGGACCGGTTTTCCCGGTAATCCGTATTTGGA (site CGCTTGGCTTC) | 0.0127
45 | CTGAGATCATGGACCGGTTTTCCCGGTAATCCGTATTTGTA (site CTGAGATCTTA) | 2.8
46 | ATGTAGGCATGGACCGGTTTTCCCGGTAATCCGTATTTGTC (site ATGTAGGCTGT) | 1.91
47 | CCCTAGCCATGGACCGGTTTTCCCGGTAATCCGTATTTGCA (site CCCTAGCCTCG) | 0
48 | CTTTTCTCATGGACCGGTTTTCCCGGTAATCCGTATTTGTA (site CTTGTCTCTTA) | 0.00384
49 | TGGCCGACATGGACCGGTTTTCCCGGTAATCCGTATTTGGG (site TGGCCGACTCC) | 0
50 | GGGGAGGCATGGACCGGTTTTCCCGGTAATCCGTATTTGAG (site GGGGAGGCTCT) | 0.897

Row | Sequence | recombinant UMI read abundance (log10)
51 | AATCACGCATGGACCGGTTTTCCCGGTAATCCGTATTTGGG (site AAACACGCTCC) | 0.0181
52 | GGATAGACATGGACCGGTTTTCCCGGTAATCCGTATTTGCC (site GGATAGACTTG) | 1.75
53 | GGAGAGACATGGACCGGTTTTCCCGGTAATCCGTATTTGCC (site GGACAGACTGG) | 0
54 | CCCTTGGCATGGACCGGTTTTCCCGGTAATCCGTATTTGGA (site CTCTTGGCTTC) | 0.00833
55 | CTCGTCCCATGGACCGGTTTTCCCGGTAATCCGTATTTGTA (site CTCGTCCCTTA) | 1.66
56 | CCTACTACATGGACCGGTTTTCCCGGTAATCCGTATTTGGC (site CCTAGTACTGC) | 0
57 | TGGCTAGCATGGACCGGTTTTCCCGGTAATCCGTATTTGAA (site TGGCTAGCTTT) | 1.06
58 | CTGACCTCATGGACCGGTTTTCCCGGTAATCCGTATTTGTA (site CTGACCTCTTA) | 2.34
59 | CGATCCTCATGGACCGGTTTTCCCGGTAATCCGTATTTGCT (site CGATCCTCTAG) | 2.82
60 | GCTTCTGCATGGACCGGTTTTCCCGGTAATCCGTATTTGCC (site GCTCCTGCTGG) | 1.82
61 | GGAGTCGCATGGACCGGTTTTCCCGGTAATCCGTATTTGCG (site GCAGTCGCTCG) | 0.021
62 | TGTTCCCCATGGACCGGTTTTCCCGGTAATCCGTATTTGTA (site TGGTCCCCTTA) | 0
63 | CCGTTGGCATGGACCGGTTTTCCCGGTAATCCGTATTTGTG (site CCGTTCGCTCA) | 0.0171
64 | TATTTGGCATGGACCGGTTTTCCCGGTAATCCGTATTTGTG (site TATTGGGCTCA) | 0.00686
65 | CACTCCTCATGGACCGGTTTTCCCGGTAATCCGTATTTGCT (site CACTCCTCTGG) | 2.08
66 | TATTTGGCATGGACCGGTTTTCCCGGTAATCCGTATTTGTG (site TATTTGGCTTA) | 0.0236
67 | CCACATTCATGGACCGGTTTTCCCGGTAATCCGTATTTGAT (site CCACATTCTAT) | 0
68 | ATCTAAGCATGGACCGGTTTTCCCGGTAATCCGTATTTGAG (site ATCAAAGCTCT) | 0.792
69 | CGAAATCCATGGACCGGTTTTCCCGGTAATCCGTATTTGTT (site CGAAATCCTAA) | 0.953
70 | TGGTTGACATGGACCGGTTTTCCCGGTAATCCGTATTTGTA (site TGGTTGACTTA) | 1.04
71 | TCAGAGACATGGACCGGTTTTCCCGGTAATCCGTATTTGCC (site TCAGAGACTGG) | 1.58
72 | GCCACGCCATGGACCGGTTTTCCCGGTAATCCGTATTTGTA (site GCCACGCCTTG) | 0.0133
73 | TCCAATTCATGGACCGGTTTTCCCGGTAATCCGTATTTGCC (site TCCTATTCTGG) | 0
74 | ATTCTCTCATGGACCGGTTTTCCCGGTAATCCGTATTTGTA (site ATTCTCTCTTA) | 2.35
75 | GGATAGACATGGACCGGTTTTCCCGGTAATCCGTATTTGCC (site CGATAGACTGG) | 0.635
